The values that follow come from patent publication US20230086683A1, “PLATELET STORAGE METHODS AND COMPOSITIONS” (Platefuse, Inc., priority 2020, published 2023).

pIC50: −log10 of the molar value.

For this experiment, the system named is washed human platelet suspension. Kind of experiment: Inhibition of collagen-induced platelet aggregation (Lumi-Aggregometer). The experiment is classed as cell-based. As to conditions: washed human platelets, 37° C., 2 min preincubation, collagen 1-4 μg/ml, read out at 6 min after induction, read-out: IC50 (concentration at which 50% aggregation is reached), platelet aggregation inhibitors. On the procedure:
Platelet shape change in washed platelets was monitored using an aggregometer and the decrease in light transmittance following addition of an agonist (Huzoor et al., 1993). For the purpose of this analysis, collagen was used as the agonist. Briefly, a washed human platelet suspension was incubated at 37° C. in a Lumi-Aggregometer (Chrono-Log Corporation) with stirring at 900 rpm, followed by the addition of dimethylsulfoxide (DMSO) as a control vehicle, or various compounds dissolved in DMSO. After incubating the samples with the respective compound for 2 minutes, platelet aggregation was induced by, adding collagen (1-4 μg/ml) and the relative aggregation value was read out at 6 min after the induction. A dose response for each compound was derived.

As for `O=C(NNc1ccnc2cc(C(F)(F)F)ccc12)c1cc2ccccc2[nH]1` [UC-177627], the pIC50 was 5.37.

Consider `O=C(NNc1ccnc2ccccc12)c1cc2ccccc2[nH]1` [UC-177626], for which the pIC50 was 5.00.

Turning to `Cc1ccc(C(=O)NNc2ccnc3c(C(F)(F)F)cccc23)cc1` [UC-177633], the pIC50 is 5.64.

Regarding `O=C(NNc1ccnc2cc(Cl)ccc12)c1ccc(Cl)c(Cl)c1` [UC-177619], the pIC50 is 5.85.

Take `O=C(NNc1ccnc2c(C(F)(F)F)cccc12)c1ccc(Cl)c(Cl)c1` [UC-177618]: the pIC50 was 5.82.

For `O=C(NNc1ccnc2ccccc12)c1ccc(Cl)c(Cl)c1` [UC-177617], the pIC50 is 4.79.

On to `Cc1ccc(C(=O)NNc2ccnc3cc(Cl)ccc23)cc1` [UC-177634], for which the pIC50 was 5.17.

On to `O=C(NNc1ccnc2cc(Cl)ccc12)c1cc2ccccc2[nH]1` [UC-177629], for which the pIC50 is 5.64.

`O=C(NNc1ccnc2c(C(F)(F)F)cccc12)c1cc2ccccc2[nH]1` [UC-177628]: the pIC50 was 5.24.
